The values that follow come from the NIST ThermoML archive (doi:10.1021/acs.jced.6b00268).

Structures are written as SMILES. ± gives the expanded uncertainty stated by the source.

The conditions of data set [1]: Crystal; DTA.
Data set [2] can be described thus: Molar enthalpy of transition or fusion. To be noted: Crystal; DSC.

Turning to `CC(C)OC(=O)C(C)(C)Oc1ccc(C(=O)c2ccc(Cl)cc2)cc1` [fenofibrate], in data set [1], the Normal melting temperature amounted to 80.47 ± 1.1 °C. Further, the “Molar enthalpy of transition or fusion” value in data set [2] amounted to 31.2 ± 0.7 kJ/mol.
